How the values were obtained:
TrkA receptors = assay: TrkA receptor tyrosine phosphorylation in PC12 (615) cells (anti-pan-Trk immunoprecipitation, PY99 anti-phosphotyrosine immunoblot); format: cell-based
Procedure: Stably transfected PC12 cells expressing high levels of TrkA (615) were treated with the indicated compounds for 2 hours. The cells were subsequently harvested in lysis buffer as described in the Materials and Methods of Example 1. Lysates were immunoprecipitated with anti-pan Trk rabbit antiserum. Immunocomplexes were analyzed by immunoblotting with anti-phosphotyrosine antibody (PY99).
In FIG. 2A, different concentrations of adenosine were administered to PC12615 cells for 2 hours or NGF (1 ng/ ml) for 10 min. Cells were also treated with CGS21680 at the indicated dose for 2 hours. In FIG. 2B, PC12 cells (615) were treated with adenosine (10 μM) for various times or with 5 ng/ml NGF for 10 min. Phosphorylated TrkA receptors were detected by immunoblot analysis using PY99 anti-phosphotyrosine antibodies. The amount of Trk receptors in each condition was verified by immunoblotting.
In FIG. 3A, PC12 cells (615) were treated with the A2A agonist CGS 21680 (10 nM) and an A1 agonist CPA (10 nM) for 2 hr. ZM 241385 (10 nM), an A2A antagonist, was incubated with the cells for 15 min prior to treatment with adenosine (10 μM) for 2 hours. In FIG. 3B, PC12 cells (615) were incubated with the indicated concentrations of PP1, a Src family kinase inhibitor (Hanke et al, 1996), for 30 min, and then treated with adenosine (10 μM) for 2 hours. Activation of TrkA was assessed by immunoprecipitation and immunoblot analysis using PY99 anti-phosphotyrosine antibody.
In FIG. 7A, different concentrations of PACAP27 were administered to PC12 (615) cells for 2 hours or NGF (5 ng/ml) for 10 min. […] Phosphorylated TrkA receptors were detected by immunoblot analysis using PY99 anti-phosphotyrosine antibodies. The level of Trk receptors for each condition was verified by immunoblotting with anti-Trk antibodies.
(§1) Immunoprotection and Immunoblotting. PC12 cells or PC12-615 cells (Hempstead et al, 1992), were maintained in Dulbecco's Modified Eagle's Medium (DMEM) containing 10% fetal bovine serum (FBS) supplemented with 100 units/ml penicillin, 100 μg/ml streptomycin, and 2 mM glutamine plus 200 μg/ml G418. Cells were placed in low serum medium (1% FBS, 0.5% horse serum) overnight prior to experiments. Cell lysates from PC12, 615 cells, or hippocampal cells were incubated in lysis buffer (1% NP40) for 4 hours to overnight at 4° C. with anti-pan-Trk polyclonal antibody, followed by incubation with protein A-Sepharose beads. Equivalent amounts of protein were analyzed for each condition. The beads' were washed five times with lysis buffer and the immune complexes were boiled in SDS-sample buffer and loaded on sodium dodecyl sulfate-polyacrylamide electrophoresis (SDS-PAGE) gels for immunoblot analysis. The immunoreactive protein bands were detected by ECL reagents based upon enhanced chemiluminescence procedure (Amersham Pharmacia).
Immunoprecipitated and Immunoblotting. PC12 (615) cells were maintained in DMEM containing 10% FBS supplemented with 100 units/ml penicillin, 100 μg/ml streptomycin, and 2 mM glutamine plus 200 μg/ml G418. Cells were placed in serum free medium overnight before experiments. Cell lysates from PC12(615) cells, or basal forebrain cells were incubated in lysis buffer (1% Nonidet P-40) for 4 hrs to overnight at 4° C. with anti-pan-Trk polyclonal antibody followed by incubation with protein A-Sepharose beads. Equivalent amounts of protein were analyzed for each condition.

TrkB receptors = assay: Trk receptor phosphorylation in primary E17 hippocampal neurons (immunoprecipitation, anti-phosphotyrosine Western blot); format: cell-based, rat; conditions: 10 nM, two hours
Procedure: FIGS. 4A and 4B show Western blots on adenosine activation of Trk receptors in hippocampal neurons. Primary cultures of E17 hippocampal neurons were prepared as described in the Materials and Methods of Example 1 and treated with (FIG. 4A) CGS 21680 (10 nM) or BDNF (1 ng/ml) for various times and (FIG. 4B) either adenosine (10 μM), CGS 21680 (10 nM), CPA (10 nM) or BDNF (10 ng/ml) for 2 hr. Activation of TrkA receptors was assessed by immunoprecipitation and Western blotting with anti-phosphotyrosine antibody.
as §1
Hippocampal Cell Cultures. Dissociated primary cultures of hippocampal neurons from embryonic day 17 (E17) rats were prepared from timed-pregnant Sprague-Dawley rats as described previously (Aibel et al, 1998). Fetuses were removed under sterile conditions and kept in PBS on ice for microscopic dissection of the hippocampus. The meninges were removed and the tissue was placed in Neurobasal media (Gibco BRL). […] Cells were counted and then plated on culture wells coated with 0.01 mg/ml poly-D-lysine overnight. […]

MAP kinase = MAP kinase activation in PC12 cells (anti-phospho MAP kinase immunoblot); format: cell-based; conditions: K252a at concentrations that block TrkA signaling (100 nM)
Procedure: as §1, with “PC12 cells (615) were treated with adenosine (10 μM) for various times in the presence or absence of […] (100 nM) or LY294002 (10 μM). The cells were subsequently harvested in lysis buffer; lysates and immunoprecipitated samples were subsequently immunoblotted with anti-phospho MAP kinase, anti-phospho Akt, and anti-phosphotyrosine. Reprobing with anti-MAP kinase and anti-pan-Trk antibodies was carried out to ensure equal protein loading. Immunoprotection” for “Immunoprotection”, “The beads' were washed five times with lysis buffer and the immune complexes were boiled in SDS-sample buffer and loaded on sodium dodecyl sulfate-polyacrylamide electrophoresis (SDS-PAGE) gels for immunoblot analysis.” left out

Akt = Akt activation in PC12 cells (anti-phospho Akt immunoblot); format: cell-based
Procedure: as §1, with “PC12 cells (615) were treated with adenosine (10 μM) for various times in the presence or absence of […] (100 nM) or LY294002 (10 μM). The cells were subsequently harvested in lysis buffer; lysates and immunoprecipitated samples were subsequently immunoblotted with anti-phospho MAP kinase, anti-phospho Akt, and anti-phosphotyrosine. Reprobing with anti-MAP kinase and anti-pan-Trk antibodies was carried out to ensure equal protein loading. To assess the activity of Akt, endogenous Akt can be immunoprecipitated from lysates with anti-Akt and the proteins assayed in Western blots with anti-phospho-Akt antibodies. Use of the anti-Akt antibody versus the anti-phospho-Akt antibody on lysates can give a comparative assessment of the relative level of the enzyme and extent of activation (Kim et al., 2001). […]” for “Immunoprotection”

[1] = test system: NGF-differentiated PC12 cells; assay: Cell death assay (LDH release), NGF-differentiated PC12 cells after NGF and serum withdrawal; format: cell-based
Procedure: (§2) FIGS. 6A and 6B show graphs on the trophic effects of adenosine in PC12 and hippocampal cells deprived of neurotrophins. In FIG. 6A, NGF-differentiated PC12 cells were prepared and then NGF and serum were withdrawn for 48 hours as described in the Materials and Methods section of Example 1. Upon NGF withdrawal, various concentrations of CGS 21680 (CGS) were added to the media. CON =No Addition. […] In FIG. 6B, hippocampal neurons were prepared and B27 was withdrawn for 48 hrs as described in the Materials and Methods section of Example 1. Upon B27 withdrawal, various concentrations of CGS 21680 (CGS) were added to the media. […] All LDH levels were quantitated and % cell death calculated as described in the Materials and Methods section of Example 1. All bars depict mean+SEM from three independent experiments.
Cell Death Assay. PC12 cells were differentiated in Dulbecco's modified Eagle's medium (DMEM), supplemented with 0.33% fetal bovine serum, 0.67% heat-inactivated horse serum, 2 mM L-glutamine and NGF (50 ng/ml) for 7 days. Serum and NGF were then removed, and adenosine agonists or growth factors added to the media. After 48 hrs, cell death was quantified by measuring lactate dehydrogenase (LDH) released from injured cells into the media using the Cytox 96 Cytotoxicity Assay Kit (Promega, Madison, Wis.). LDH values were normalized by subtracting the LDH released by cells maintained in NGF (50 ng/ml) and scaling to a full kill (=100%) reference induced by 5 min treatment with 1% Triton, an exposure that consistently killed all PC12 cells.

hippocampal neurons = assay: Cell death assay (LDH release), hippocampal neurons after B27 withdrawal; format: cell-based, rat; conditions: 100 nM, with CGS 21680 (10 nM) upon B27 withdrawal
Procedure: as §2, with “.” for “FIGS. 6A and 6B show graphs on the trophic effects of adenosine in PC12 and hippocampal cells deprived of neurotrophins.”
Hippocampal Cell Cultures. Dissociated primary cultures of hippocampal neurons from embryonic day 17 (E17) rats were prepared from timed-pregnant Sprague-Dawley rats as described previously (Aibel et al, 1998). Fetuses were removed under sterile conditions and kept in PBS on ice for microscopic dissection of the hippocampus. The meninges were removed and the tissue was placed in Neurobasal media (Gibco BRL). The tissue was briefly minced with fine forceps and then triturated with a fire polished pasteur pipet. Cells were counted and then plated on culture wells coated with 0.01 mg/ml poly-D-lysine overnight. Hippocampal cells were maintained in Neurobasal media, containing B27 supplement and L-glutamine (0.5 mM). Experiments were conducted 7–10 days after plating.
Hippocampal neurons were maintained in Neurobasal media containing B27 supplement and 0.5 mM L-glutamine for 10 days. B27 was then removed, and adenosine agonists or BDNF (100 ng/ml) was added to the media. MK-801 (1 μM) was added to all conditions, to decrease the contribution of NMDA-mediated cell death. After 48 hrs, cell death was assessed by measurement of LDH released into media.

## OC[C@H]1O[C@@H](n2cnc3c(NC4CCCC4)ncnc32)[C@H](O)[C@@H]1O [CPA, N(6)-cyclopentyladenosine]
TrkA receptors; PC12 (615) cells, 10 nM, 2 hr
  Increase in phosphorylated TrkA receptors: no effect
TrkB receptors
  Phosphorylation of TrkB receptors: did not activate TrkB receptors

## COC(=O)[C@@]1(O)C[C@H]2O[C@]1(C)n1c3ccccc3c3c4c(c5c6ccccc6n2c5c31)C(=O)NC4 [K252a]
MAP kinase
  Effect on MAP kinase activity induced by adenosine: not altered
Akt; pretreatment 100 nM
  Effect on Akt activation by adenosine: eliminated
[1]; 100 nM, with CGS 21680 (10 nM) upon NGF withdrawal
  Effect on survival effect of CGS 21680: eliminated the positive effects of CGS 21680
[1]; 100 nM, with NGF (50 ng/ml)
  Effect on survival effects of NGF: reversed the survival effects of NGF
Hippocampal neurons
  Effect on survival action of CGS 21680: K-252a sensitive

## COc1cccc(-c2cc(=O)c3ccccc3o2)c1N [PD98059]
[1]; 25 μM, with CGS 21680 (10 nM)
  Effect on survival imparted by CGS 21680: not found to have any effect

## Cc1ccc(-c2nn(C(C)(C)C)c3ncnc(N)c23)cc1 [PP1]
TrkA receptors; 1 μM, 30 min, then adenosine (10 μM) for 2 hours
  Effect on level of tyrosine phosphorylated TrkA receptors elicited by adenosine: marked decrease
TrkA receptors; increasing concentrations, then adenosine (10 μM) for 2 hours
  Effect on tyrosine phosphorylated TrkA receptors elicited by adenosine, concentration dependence: progressively stronger inhibition

## Nc1nc(NCCc2ccc(O)cc2)nc2nc(-c3ccco3)nn12 [ZM 241385, 4-[2-[7-amino-2-(2-furyl)-1,2,4-triazolo[1,5-a](1,3,5)triazin-5-ylamino]ethyl]phenol]
TrkA receptors; 10 nM, 15 min prior to adenosine (10 μM) for 2 hours
  Effect on adenosine-induced phosphorylation of TrkA receptors: antagonized the effects of adenosine

## CN1CCc2cccc3c2[C@H]1Cc1ccc(O)c(O)c1-3 [apomorphine]
TrkA receptors; PC12 (615) cells, ligand for 2 hours, adenosine 10 μM
  Activation of TrkA receptors (tyrosine phosphorylation): not observed

## Pituitary adenylate cyclase activating polypeptide [PACAP]
TrkA receptors; PC12 (615) cells, 2 hours
  Concentration range of the effect upon TrkA receptor activity: low nanomolar concentration range
TrkA receptors; PC12 (615) cells, PACAP27 1 nM
  Time required for increase in TrkA activation: 2 h
Akt; PC12 cells, PACAP treatment
  Akt activity: stimulated

— patent publication US7169568B2, “Method for screening molecules that exert a neurotrophic effect through activation of neurotrophin receptors” (New York University, priority 2000, dated 2007)
